One data set has as its system L1210-Leukämiezellen. Briefly: Colony formation of L1210 leukaemia cells in soft agar. In kind it is cell-based, Maus. The conditions noted are these: colony number vs untreated control, 7 days at 37° C; 1 h incubation or continuous exposure not specified. The text has this:
Die Bestimmung der zytostatischen Wirksamkeit der hier beschriebenen Verbindungen erfolgte an L1210-Leukämiezellen der Maus. Im einzelnen wurden folgende Testsysteme verwendet:
Diese Methode dient zum Nachweis eines Einflusses der Testsubstanzen auf das Wachstumsverhalten der Zellen über mehrere Generationen (bei einer Zellzykluszeit von 10 - 12 Stunden werden in der Testzeit von 7 Tagen etwa 14 aufeinanderfolgende Generationen beobachtet). Zytostatisch wirksame Substanzen bewirken in diesem Test eine Reduktion der zu beobachtenden Koloniezahl gegenüber einer unbehandelten Kontrolle. Im einzelnen wird der Test wie folgt durchgeführt: Leukämiezellen werden mit unterschiedlichen Konzentrationen von Testsubstanz 1 Stunde bei 37° C inkubiert.
Anschließend werden die Zellen zweimal mit McCoy5A-Medium gewaschen und schließlich in Petrischalen nach Zusatz von 0.3 % Agar ausgegossen (500 Zellen/Platte). Kontrollen werden lediglich mit frischem Medium inkubiert. Anstelle der einstündigen Inkubation werden in manchen Fällen unterschiedliche Konzentrationen und Testsubstanz der oberen Agarschicht zugemischt, um so eine kontinuierliche Exposition der Zellen über die gesamte Inkubationszeit zu erreichen. Nach Erstarren des Agars werden die Platten im Brutschrank 7 Tage bei 37° C inkubiert ( 5 Vol-% CO₂, 95 % relative Luftfeuch tigkeit). Anschließend wird die Anzahl der entstandenen Kolonien mit einem Durchmesser von mehr als 60 µ gezählt. Die Ergebnisse werden angegeben als Koloniezahl in behandelten Agarplatten, in Prozent der unbehandelten Kontrolle. Aus der so erhalten Dosiswirkungskurve wird die IC₅₀ als Maß für die Wirksamkeit der Substanz ermittelt.

The next data set concerns NMRI-Mäusen. Briefly: Acute toxicity in mice (LD50, Litchfield-Wilcoxon). The class given is in vivo, Maus. The conditions noted are these: 3 x i.p.; survivors counted day 14 after last injection. On the procedure: Zur Ermittlung der akuten Toxizität werden NMRI-Mäusen am Tag 0 unterschiedliche Dosen der Testsubstanz gelöst in 0.5 ml 5 %iger Glucose-Lösung, intraperitoneal injiziert. Kontrollgruppen erhalten lediglich 0.5 ml 5 %ige Glucose-Lösung. Pro Konzentration der Testsubstanz werden 5 Mäuse verwendet. Am Tag 14 nach der letzten Injektion wird die Zahl der überlebenden Mäuse ermittelt und daraus nach der Lichtfield Wilcoxon Methode die LD5, LD50 und LD95 ermittelt.

A further data set has as its system L1210 Leukämie der Maus. Briefly: In vivo efficacy of the platinum complexes against L1210 leukaemia of the mouse. Further details: opt. Dose: unit not given here. The conditions noted are these: for LTS (Long Term Survivor): animals alive on day 60 (cured) per group of 6, at optimal dose, 3 x i.p./i.p.; for opt. Dose: dose with the greatest antitumoural effect, schedule 3 x i.p./i.p.; for T/C % L1210: treatment schedule 3 x i.p./i.p., mean survival time vs control at optimal dose. On the procedure: Ascitesflüssigkeit wird unter sterilen Bedingungen DBA2 Mäusen (weiblich, 18 - 20 g) 7 Tage nach Implantation entnommen. Der Ascites wird dreimal mit PBS gewaschen, gezählt und auf eine Zellzahl von 10⁶ in 0.2 ml PBS eingestellt. 10⁶ Zellen, suspendiert in 0.2 ml PBS, werden anschlie-ßend DBF1 Mäusen (weiblich, 18 - 20 g) intraperitoneal injiziert. 6 Tiere pro Gruppe werden für jede Substanz konzentration bzw. als Kontrolle eingesetzt.
• a) Die Tiere werden am Tag 1 und 5 nach Injektion der Testsubstanz gewogen.
Die Dosis, die den größten antitumoralen Effekt (optimale Dosierung) sowie jeweils eine Dosisstufe oberhalb und unterhalb dieser Dosis wurden angegeben. Tiere, die am Tag 60 des Experimentes noch leben, werden als geheilt zusätzlich getrennt aufgeführt.

Molecule `CCC(CN)(CN)COC.O=C1[O][Pt][O]C(=O)C12CC2` [Verbindung 1, 1,3-Diamino-2-ethyl-2-methoxymethyl-propan-N,N′-platin(II)-O,O′-cyclopropan-1,1-dicarboxylat] showed an IC₅₀ in the data set with L1210-Leukämiezellen of 5.0 µg/mL. Also, the LD₅₀ in the data set with NMRI-Mäusen was 90 to 120 mg/kg. For the same molecule, in the data set on L1210 Leukämie der Maus, the “LTS (Long Term Survivor)” value is 6/6, the “opt. Dose” value came to 50 and the “T/C % L1210” value is on record as 450%.
On to `N.N.[Cl][Pt][Cl]` [Cisplatin, reference compound], for which, in the data set on L1210-Leukämiezellen, the IC₅₀ was 0.04 µg/mL. Besides, in the data set with L1210 Leukämie der Maus, the “opt. Dose” value worked out at 4 and the “T/C % L1210” value came to 157%.
Consider `CCC(CN)(CN)COC.O=C1C[O][Pt][O]1` [Verbindung 16, 1,3-Diamino-2-ethyl-2-methoxymethyl-propan-N,N′-platin(II)-O,O′-2-hydroxy-acetat], for which the IC₅₀ in the data set on L1210-Leukämiezellen worked out at 1.2 µg/mL. In the data set on L1210 Leukämie der Maus, the “LTS (Long Term Survivor)” value is listed as 4/6, the “opt. Dose” value is recorded as 15.8 and the “T/C % L1210” value came to 361%.
In the same order, the values of `COCC(C)(CN)CN.O=C1C[O][Pt][O]1` [Verbindung 17, 1,3-Diamino-2-methoxymethyl-2-methyl-propan-N,N′-platin(II)-O,O′-2-hydroxy-acetat] are 1.8 µg/mL, 1/6, 9.5 and 225%.
Turning to `CCC(CN)(CN)COC.COC1C(=O)[O][Pt][O]C1=O` [Verbindung 9, 1,3-Diamino-2-ethyl-2-methoxymethyl-propan-N,N′-platin(II)-O,O′-2-methoxymalonat], in the data set with L1210-Leukämiezellen, the IC₅₀ was 2.35 µg/mL. The LD₅₀ in the data set with NMRI-Mäusen is reported as 60 mg/kg. Also, in the data set with L1210 Leukämie der Maus, the “LTS (Long Term Survivor)” value is 3/6, the “opt. Dose” value came to 16 and the “T/C % L1210” value was 306%.
In turn, `COCC(C)(CN)CN.O=C([O-])C1(C(=O)[O-])CC1.[Pt+2]` [Verbindung 2, 1,3-Diamino-2-methoxymethyl-2-methyl-propan-N,N′-platin(II)-O,O′-cyclopropan-1,1-dicarboxylat] displayed an IC₅₀ with L1210-Leukämiezellen of 4.2 µg/mL.
The molecule `CCC(CN)(CN)COC.CCC1(C)[O][Pt][O]C1=O` [Verbindung 22, 1,3-Diamino-2-ethyl-2-methoxymethyl-propan-N,N′-platin(II)-O,O′-(2-hydroxy-2-methyl)-butyrat] registered an IC₅₀ in the data set on L1210-Leukämiezellen of 2.9 µg/mL. The LD₅₀ in the data set with NMRI-Mäusen fell in the range of 90 to 180 mg/kg.
